Reference: ChEMBL document CHEMBL1141569, “Synthesis and antimicrobial activity of 3-arylamino-1-chloropropan-2-ols” (Bioorg Med Chem Lett, 2008)
≈ marks a conversion by molar mass, not a printed value.

Key:
Streptococcus pneumoniae = experiment: Antibacterial activity against Streptococcus pneumoniae by micro-broth dilution assay; assay type: functional
Staphylococcus aureus = experiment: Antibacterial activity against Staphylococcus aureus by microbroth dilution assay; assay type: functional
[1] = Toxicity in human erythrocytes assessed as hemolysis upto 250 ug/mL; assay type: cell-based; conditions: erythrocyte
Aspergillus fumigatus [2] = experiment: Antifungal activity against Aspergillus fumigatus assessed as inhibition per disc by disc diffusion method; assay type: functional
Aspergillus fumigatus [3] = experiment: Antifungal activity against Aspergillus fumigatus assessed as inhibition per disc by microbroth dilution assay; assay type: functional
Aspergillus fumigatus [4] = experiment: Antifungal activity against Aspergillus fumigatus assessed as inhibition per disc by percent spore germination inhibition method; assay type: functional
Aspergillus flavus [5] = experiment: Antifungal activity against Aspergillus flavus assessed as inhibition per disc by disc diffusion method; assay type: functional
Aspergillus flavus [6] = experiment: Antifungal activity against Aspergillus flavus assessed as inhibition per disc by microbroth dilution assay; assay type: functional
Aspergillus flavus [7] = experiment: Antifungal activity against Aspergillus flavus assessed as inhibition per disc by percent spore germination inhibition method; assay type: functional
Aspergillus niger [8] = experiment: Antifungal activity against Aspergillus niger assessed as inhibition per disc by disc diffusion method; assay type: functional
Aspergillus niger [9] = experiment: Antifungal activity against Aspergillus niger assessed as inhibition per disc by microbroth dilution assay; assay type: functional
Aspergillus niger [10] = experiment: Antifungal activity against Aspergillus niger assessed as inhibition per disc by percent spore germination inhibition method; assay type: functional
Candida albicans [11] = experiment: Antifungal activity against Candida albicans assessed as inhibition per disc by percent growth inhibition assay; assay type: functional
Aspergillus fumigatus [12] = experiment: Antifungal activity against Aspergillus fumigatus at 5.85 ug/mL; assay type: functional
Salmonella typhi [13] = experiment: Antibacterial activity against Salmonella typhi by microbroth dilution assay; assay type: functional, Salmonella enterica subsp. enterica serovar Typhi; conditions: Salmonella enterica
Pseudomonas aeruginosa [14] = experiment: Antibacterial activity against Pseudomonas aeruginosa by microbroth dilution assay; assay type: functional
Salmonella typhi [15] = experiment: Antibacterial activity against Salmonella typhi at 31.25 ug/mL; assay type: functional, Salmonella enterica subsp. enterica serovar Typhi; conditions: Salmonella enterica
Candida albicans [16] = experiment: Antifungal activity against Candida albicans at 31.25 ug/mL; assay type: functional
[17] = Toxicity in human erythrocytes assessed as hemolysis upto 4000 ug/mL; assay type: cell-based; conditions: erythrocyte
Pseudomonas aeruginosa [18] = experiment: Antibacterial activity against Pseudomonas aeruginosa at 31.25 ug/mL; assay type: functional
[19] = Toxicity in human erythrocytes assessed as hemolysis upto 62.5 ug/mL; assay type: cell-based, Erythrocyte; conditions: read-out: Activity
[20] = Toxicity in human erythrocytes assessed as hemolysis upto 3.91 ug/mL; assay type: cell-based, Erythrocyte; conditions: read-out: Activity
[21] = Toxicity in human erythrocytes assessed as hemolysis upto 1.70 ug/mL; assay type: cell-based, Erythrocyte; conditions: read-out: Activity

SMILES | MIC (Streptococcus pneumoniae) | MIC (Staphylococcus aureus) | Activity [1] | MIC (Aspergillus fumigatus [2]) | MIC (Aspergillus fumigatus [3]) | MIC (Aspergillus fumigatus [4]) | MIC (Aspergillus flavus [5]) | MIC (Aspergillus flavus [6]) | MIC (Aspergillus flavus [7]) | MIC (Aspergillus niger [8]) | MIC (Aspergillus niger [9]) | MIC (Aspergillus niger [10]) | MIC (Candida albicans [11]) | MIC (Salmonella typhi [13]) | MIC (Pseudomonas aeruginosa [14]) | further results
OC(CCl)CNc1ccccc1Cl (stereo unspecified) | 250 µg/mL (≈ 1140 µM) | 500 µg/mL (≈ 2270 µM) | Non-toxic | 11.71 µg | 31.2 µg/mL | 31.2 µg/mL (≈ 142 µM) | 23.43 µg | 63.5 µg/mL | 31.2 µg/mL (≈ 142 µM) | 23.43 µg | 62.5 µg/mL | 62.5 µg/mL (≈ 284 µM) | 250 µg/mL (≈ 1140 µM) | 250 µg/mL (≈ 1140 µM) | 62.5 µg/mL (≈ 284 µM) | inhibition at 5.85 µg/mL (Aspergillus fumigatus [12]): 90%
OC(CCl)CNc1ccc(Cl)cc1Cl (stereo unspecified) | 125 µg/mL (≈ 491 µM) | 500 µg/mL (≈ 1960 µM) | Non-toxic | 23.43 µg | 62.5 µg/mL | 62.5 µg/mL (≈ 246 µM) | 46.87 µg | 125 µg/mL | 62.5 µg/mL (≈ 246 µM) | 93.75 µg | 125 µg/mL | 125 µg/mL (≈ 491 µM) | 62.5 µg/mL (≈ 246 µM) | 31.3 µg/mL (≈ 123 µM) | 62.5 µg/mL (≈ 246 µM) | inhibition at 31.25 µg/mL (Salmonella typhi [15]): 90%
OC(CCl)CNc1cc(Cl)ccc1Cl (stereo unspecified) | 500 µg/mL (≈ 1960 µM) | 250 µg/mL (≈ 982 µM) | Non-toxic | 46.87 µg | 125 µg/mL | 125 µg/mL (≈ 491 µM) | 93.75 µg | 125 µg/mL | 62.5 µg/mL (≈ 246 µM) | 93.75 µg | 125 µg/mL | 125 µg/mL (≈ 491 µM) | 62.5 µg/mL (≈ 246 µM) | 250 µg/mL (≈ 982 µM) | 62.5 µg/mL (≈ 246 µM) | 
OC(CCl)CNc1c(Cl)cccc1Cl (stereo unspecified) | 500 µg/mL (≈ 1960 µM) | 500 µg/mL (≈ 1960 µM) | Non-toxic | 46.87 µg | 125 µg/mL | 125 µg/mL (≈ 491 µM) | 46.87 µg | 125 µg/mL | 62.5 µg/mL (≈ 246 µM) | 93.75 µg | 250 µg/mL | 125 µg/mL (≈ 491 µM) | 31.2 µg/mL (≈ 123 µM) | 500 µg/mL (≈ 1960 µM) | 125 µg/mL (≈ 491 µM) | inhibition at 31.25 µg/mL (Candida albicans [16]): 90%
OC(CCl)CNc1cccc(Cl)c1 (stereo unspecified) | 500 µg/mL (≈ 2270 µM) | 1000 µg/mL (≈ 4540 µM) | Non-toxic | 23.43 µg | 62.5 µg/mL | 62.5 µg/mL (≈ 284 µM) | 46.87 µg | 62.5 µg/mL | 62.5 µg/mL (≈ 284 µM) | 46.87 µg | 62.5 µg/mL | 62.5 µg/mL (≈ 284 µM) | 125 µg/mL (≈ 568 µM) | 500 µg/mL (≈ 2270 µM) | 250 µg/mL (≈ 1140 µM) | 
OC(CCl)CNc1ccc(Cl)cc1 (stereo unspecified) | 500 µg/mL (≈ 2270 µM) | 1000 µg/mL (≈ 4540 µM) | Non-toxic | 5.85 µg | 15.6 µg/mL | 15.6 µg/mL (≈ 71 µM) | 11.71 µg | 31.2 µg/mL | 15.6 µg/mL (≈ 71 µM) | 23.43 µg | 31.2 µg/mL | 31.2 µg/mL (≈ 142 µM) | 62.5 µg/mL (≈ 284 µM) | 62.5 µg/mL (≈ 284 µM) | 125 µg/mL (≈ 568 µM) | Activity [17]: Non-toxic; inhibition at 5.85 µg/mL (Aspergillus fumigatus [12]): 90%
OC(CCl)CNc1cccc(Cl)c1Cl (stereo unspecified) | 62.5 µg/mL (≈ 246 µM) | 500 µg/mL (≈ 1960 µM) | Non-toxic | 46.87 µg | 125 µg/mL | 62.5 µg/mL (≈ 246 µM) | 46.87 µg | 125 µg/mL | 125 µg/mL (≈ 491 µM) | 93.75 µg | 125 µg/mL | 125 µg/mL (≈ 491 µM) | 62.5 µg/mL (≈ 246 µM) | 62.5 µg/mL (≈ 246 µM) | 62.5 µg/mL (≈ 246 µM) | 
OC(CCl)CNc1ccc(Cl)c(Cl)c1 (stereo unspecified) | 125 µg/mL (≈ 491 µM) | 62.5 µg/mL (≈ 246 µM) | Non-toxic | 11.71 µg | 31.2 µg/mL | 31.2 µg/mL (≈ 123 µM) | 23.43 µg | 62.5 µg/mL | 31.2 µg/mL (≈ 123 µM) | 46.87 µg | 62.5 µg/mL | 62.5 µg/mL (≈ 246 µM) | 125 µg/mL (≈ 491 µM) | 62.5 µg/mL (≈ 246 µM) | 31.3 µg/mL (≈ 123 µM) | inhibition at 31.25 µg/mL (Pseudomonas aeruginosa [18]): 90%
OC(CCl)CNc1cc(Cl)cc(Cl)c1 (stereo unspecified) | 250 µg/mL (≈ 982 µM) | 125 µg/mL (≈ 491 µM) | Non-toxic | 46.87 µg | 125 µg/mL | 125 µg/mL (≈ 491 µM) | 46.87 µg | 125 µg/mL | 125 µg/mL (≈ 491 µM) | 93.75 µg | 250 µg/mL | 250 µg/mL (≈ 982 µM) | 31.2 µg/mL (≈ 123 µM) | 31.3 µg/mL (≈ 123 µM) | 62.5 µg/mL (≈ 246 µM) | inhibition at 31.25 µg/mL (Salmonella typhi [15]): 90%; inhibition at 31.25 µg/mL (Candida albicans [16]): 90%
C[C@@H]1[C@H](O)[C@@H](C)/C=C/C=C/C=C/C=C/C=C/C=C/C=C/[C@H](O[C@@H]2O[C@H](C)[C@@H](O)[C@H](N)[C@@H]2O)C[C@@H]2O[C@](O)(C[C@@H](O)C[C@@H](O)[C@H](O)CC[C@@H](O)C[C@@H](O)CC(=O)O[C@H]1C)C[C@H](O)[C@H]2C(=O)O (stereo in doubt) [AMPHOTERICIN B] |  |  |  | 0.73 µg | 1.95 µg/mL | 1.95 µg/mL (≈ 2.11 µM) | 0.73 µg | 1.95 µg/mL | 1.95 µg/mL (≈ 2.11 µM) | 0.73 µg | 1.95 µg/mL | 1.95 µg/mL (≈ 2.11 µM) |  |  |  | hemolysis at 62.5 ug/mL [19]: 100%; hemolysis at 3.91 ug/mL [20]: 5.52%; hemolysis at 1.7 ug/mL [21]: 50%
CN(C)[C@@H]1C(O)=C(C(N)=O)C(=O)[C@@]2(O)C(O)=C3C(=O)c4c(O)cccc4[C@@](C)(O)[C@H]3C[C@@H]12 [TETRACYCLINE] | 7.9 µg/mL (≈ 17.8 µM) | 7.9 µg/mL (≈ 17.8 µM) |  |  |  |  |  |  |  |  |  |  |  | 15.6 µg/mL (≈ 35.1 µM) | 7.9 µg/mL (≈ 17.8 µM) | hemolysis at 62.5 ug/mL [19]: 11.7%; hemolysis at 3.91 ug/mL [20]: 4.26%
